Assay results: patent publication US7807781B2, “Inhibitors of serine protease activity and their use in methods and compositions for treatment of viral infections” (The Regents of the University of Colorado, priority 1999, dated 2010)

Tested on: HIV-1 production in U1 cells
Assay: U1 monocytic cell assay, TNF-induced HIV-1 p24 antigen
Assay type: cell-based
Conditions: for TNF-induced p24 antigen: 3.0 ng/ml TNF

**Q.** How did the “TNF-induced p24 antigen” value (AAT 0.1 mg/ml) turn out when “AAT: Alpha-1-antitrypsin purified from the blood of healthy volunteers to single-band homogeneity” was run?
**A.** 16,405±8,449 pg/ml

**Q.** And the “TNF-induced p24 antigen” value (AAT 0.5 mg/ml)?
**A.** 16,863±7,718 pg/ml

**Q.** And the “TNF-induced p24 antigen” value (AAT 1 mg/ml)?
**A.** 15,328±7,129 pg/ml

**Q.** And the “TNF-induced p24 antigen” value (AAT 2 mg/ml)?
**A.** 12,566±4,981 pg/ml

**Q.** What about the “TNF-induced p24 antigen” value (AAT 3 mg/ml) of the same substance?
**A.** 9,341±2,730 pg/ml

**Q.** What about the “TNF-induced p24 antigen” value (AAT 4 mg/ml) of the same substance?
**A.** 9,091±3,436 pg/ml

**Q.** What about the “TNF-induced p24 antigen” value (AAT 5 mg/ml) of the same substance?
**A.** 6,868±2,737 pg/ml

**Q.** And the “mean percent reduction in TNF-induced p24 antigen” value (“mean percent reduction” for short) (AAT 3 mg/ml)?
**A.** 56%

**Q.** What about the “mean percent reduction” value (AAT 4 mg/ml) of the same substance?
**A.** 60%

**Q.** And the “mean percent reduction” value (AAT 5 mg/ml)?
**A.** 73%
